The target in data set [1] is T1, Cysteinyl leukotriene receptor 1 (Homo sapiens, UniProt Q9Y271). Further: in other assays of this panel Not Active means under 50% inhibition at 10 µM.
T1 sequence (Q9Y271 whole entry): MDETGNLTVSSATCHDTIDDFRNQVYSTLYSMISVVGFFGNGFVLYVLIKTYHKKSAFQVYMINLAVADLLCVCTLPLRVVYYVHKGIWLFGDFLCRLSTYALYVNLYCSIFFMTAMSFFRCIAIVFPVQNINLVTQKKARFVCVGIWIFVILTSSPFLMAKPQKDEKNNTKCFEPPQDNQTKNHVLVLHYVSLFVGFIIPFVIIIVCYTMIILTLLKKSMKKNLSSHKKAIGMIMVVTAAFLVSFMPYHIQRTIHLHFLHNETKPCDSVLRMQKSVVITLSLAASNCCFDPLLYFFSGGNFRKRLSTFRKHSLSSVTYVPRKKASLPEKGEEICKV
It counts as cell membranes, Membrane. Conditions: cho-k1.

In data set [2] the target is T2, Amine oxidase [flavin-containing] A (Homo sapiens, UniProt P21397).
T2 sequence (P21397 whole entry): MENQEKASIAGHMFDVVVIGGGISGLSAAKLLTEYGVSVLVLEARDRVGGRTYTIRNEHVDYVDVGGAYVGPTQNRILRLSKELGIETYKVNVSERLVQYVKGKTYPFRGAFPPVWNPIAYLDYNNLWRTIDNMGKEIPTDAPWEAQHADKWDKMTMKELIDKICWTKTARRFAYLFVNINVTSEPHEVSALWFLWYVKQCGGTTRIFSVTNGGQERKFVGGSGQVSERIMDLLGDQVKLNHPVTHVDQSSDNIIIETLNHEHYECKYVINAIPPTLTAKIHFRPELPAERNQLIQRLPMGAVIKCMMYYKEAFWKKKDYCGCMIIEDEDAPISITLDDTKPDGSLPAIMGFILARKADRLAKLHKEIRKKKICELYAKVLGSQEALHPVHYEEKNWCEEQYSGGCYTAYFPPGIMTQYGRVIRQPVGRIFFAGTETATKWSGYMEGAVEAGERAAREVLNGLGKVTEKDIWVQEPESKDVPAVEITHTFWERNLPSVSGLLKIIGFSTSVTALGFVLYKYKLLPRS
The experiment in a line: DRUGMATRIX: Monoamine Oxidase MAO-A enzyme inhibition (substrate: Kynuramine). The arrangement: species or system BTI-TN-5B1-4. The conditions noted are these: bti-tn-5b1-4; Not Active = under 50% inhibition at 10 µM.

Data set [3] concerns the target Receptor tyrosine-protein kinase erbB-2 (Homo sapiens, UniProt P04626). Description: biochemical. In kind it is cell-based, Insect cells.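 Further: inhibition of HER2 kinase enzyme activity, measured with Poly(Glu:Tyr) as the phosphorylation substrate; in other assays of this panel Not Active means under 50% inhibition at 10 µM.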
The nature of data set [4]: DRUGMATRIX: Atrial Natriuretic Factor (ANF) radioligand binding (ligand: [125I] ANF (rat)). In kind it is cell membranes, Cavia porcellus, Dunkin-Hartley, Adrenal gland, Membrane. Conditions: Not Active = under 50% inhibition at 10 µM.
The target of data set [5] is Voltage-gated inwardly rectifying potassium channel KCNH2 (Homo sapiens, UniProt Q12809). Conditions: hek293. Further: in other assays of this panel Not Active means under 50% inhibition at 10 µM.
Sequence of Voltage-gated inwardly rectifying potassium channel KCNH2 (Q12809 whole entry): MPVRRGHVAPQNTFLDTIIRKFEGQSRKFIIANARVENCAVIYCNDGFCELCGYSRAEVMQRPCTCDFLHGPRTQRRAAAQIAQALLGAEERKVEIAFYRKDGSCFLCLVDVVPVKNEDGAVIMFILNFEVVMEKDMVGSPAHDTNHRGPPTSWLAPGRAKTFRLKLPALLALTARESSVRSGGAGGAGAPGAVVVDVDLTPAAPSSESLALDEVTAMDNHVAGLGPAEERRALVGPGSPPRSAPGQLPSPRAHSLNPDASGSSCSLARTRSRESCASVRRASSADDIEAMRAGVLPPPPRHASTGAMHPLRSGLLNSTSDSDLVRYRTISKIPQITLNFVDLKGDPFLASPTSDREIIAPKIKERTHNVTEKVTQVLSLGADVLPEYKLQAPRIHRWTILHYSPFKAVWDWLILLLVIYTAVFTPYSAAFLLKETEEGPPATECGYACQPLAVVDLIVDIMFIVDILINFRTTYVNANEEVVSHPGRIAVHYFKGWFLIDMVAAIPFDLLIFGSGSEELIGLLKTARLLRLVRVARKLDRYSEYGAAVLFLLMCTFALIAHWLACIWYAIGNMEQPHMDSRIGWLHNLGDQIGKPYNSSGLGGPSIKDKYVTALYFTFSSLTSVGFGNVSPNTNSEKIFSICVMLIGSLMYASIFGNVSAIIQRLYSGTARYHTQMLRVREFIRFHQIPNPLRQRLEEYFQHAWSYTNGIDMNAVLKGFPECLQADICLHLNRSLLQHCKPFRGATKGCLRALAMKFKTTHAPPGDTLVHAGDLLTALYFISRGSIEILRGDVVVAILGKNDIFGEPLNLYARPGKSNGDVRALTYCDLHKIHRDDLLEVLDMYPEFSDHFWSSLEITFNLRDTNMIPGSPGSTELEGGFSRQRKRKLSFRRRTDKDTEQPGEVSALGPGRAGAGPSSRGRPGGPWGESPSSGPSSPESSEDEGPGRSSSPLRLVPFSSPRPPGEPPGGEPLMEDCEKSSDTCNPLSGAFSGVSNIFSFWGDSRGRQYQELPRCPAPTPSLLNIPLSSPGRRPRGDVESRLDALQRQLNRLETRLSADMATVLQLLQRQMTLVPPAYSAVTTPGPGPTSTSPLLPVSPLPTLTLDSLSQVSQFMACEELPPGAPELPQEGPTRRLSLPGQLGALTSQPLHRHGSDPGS
Another data set has as its target T3, Adenosine receptor A3 (Homo sapiens, UniProt P0DMS8).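 Further: radioligand binding assay with AB-MECA serving as the labeled ligand; in other assays of this panel Not Active means under 50% inhibition at 10 µM.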
T3 sequence (P0DMS8 whole entry): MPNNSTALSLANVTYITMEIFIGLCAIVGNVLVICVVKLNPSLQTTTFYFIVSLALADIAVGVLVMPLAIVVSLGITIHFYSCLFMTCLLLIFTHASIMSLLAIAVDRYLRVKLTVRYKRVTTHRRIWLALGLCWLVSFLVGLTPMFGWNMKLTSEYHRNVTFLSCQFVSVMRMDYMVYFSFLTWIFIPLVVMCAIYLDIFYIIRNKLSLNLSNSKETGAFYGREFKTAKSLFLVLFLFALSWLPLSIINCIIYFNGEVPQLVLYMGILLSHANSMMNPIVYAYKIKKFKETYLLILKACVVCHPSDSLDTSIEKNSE
It counts as cell membranes, CHO-K1, Membrane. The conditions noted are these: for Ki: read-out: Ki.

The target in another data set is Melanocortin receptor 4 (Homo sapiens, UniProt P32245). In kind it is cell membranes, HEK293, Membrane. Further: in other assays of this panel Not Active means under 50% inhibition at 10 µM.
Sequence of Melanocortin receptor 4 (P32245 whole entry): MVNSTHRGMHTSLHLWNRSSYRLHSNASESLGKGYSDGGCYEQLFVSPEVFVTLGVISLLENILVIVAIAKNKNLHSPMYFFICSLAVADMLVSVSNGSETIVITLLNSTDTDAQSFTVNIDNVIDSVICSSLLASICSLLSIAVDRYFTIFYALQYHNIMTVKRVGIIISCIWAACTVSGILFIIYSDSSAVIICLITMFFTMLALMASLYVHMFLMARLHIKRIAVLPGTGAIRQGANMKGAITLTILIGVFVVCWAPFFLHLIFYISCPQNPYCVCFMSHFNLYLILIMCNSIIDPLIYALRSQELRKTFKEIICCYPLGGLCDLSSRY

As a reminder, the IC50 is the concentration that gives 50% inhibition. As a reminder, the Ki is a measure of affinity in units of concentration, obtained from inhibition or displacement.

Sequence of Receptor tyrosine-protein kinase erbB-2 (P04626 whole entry): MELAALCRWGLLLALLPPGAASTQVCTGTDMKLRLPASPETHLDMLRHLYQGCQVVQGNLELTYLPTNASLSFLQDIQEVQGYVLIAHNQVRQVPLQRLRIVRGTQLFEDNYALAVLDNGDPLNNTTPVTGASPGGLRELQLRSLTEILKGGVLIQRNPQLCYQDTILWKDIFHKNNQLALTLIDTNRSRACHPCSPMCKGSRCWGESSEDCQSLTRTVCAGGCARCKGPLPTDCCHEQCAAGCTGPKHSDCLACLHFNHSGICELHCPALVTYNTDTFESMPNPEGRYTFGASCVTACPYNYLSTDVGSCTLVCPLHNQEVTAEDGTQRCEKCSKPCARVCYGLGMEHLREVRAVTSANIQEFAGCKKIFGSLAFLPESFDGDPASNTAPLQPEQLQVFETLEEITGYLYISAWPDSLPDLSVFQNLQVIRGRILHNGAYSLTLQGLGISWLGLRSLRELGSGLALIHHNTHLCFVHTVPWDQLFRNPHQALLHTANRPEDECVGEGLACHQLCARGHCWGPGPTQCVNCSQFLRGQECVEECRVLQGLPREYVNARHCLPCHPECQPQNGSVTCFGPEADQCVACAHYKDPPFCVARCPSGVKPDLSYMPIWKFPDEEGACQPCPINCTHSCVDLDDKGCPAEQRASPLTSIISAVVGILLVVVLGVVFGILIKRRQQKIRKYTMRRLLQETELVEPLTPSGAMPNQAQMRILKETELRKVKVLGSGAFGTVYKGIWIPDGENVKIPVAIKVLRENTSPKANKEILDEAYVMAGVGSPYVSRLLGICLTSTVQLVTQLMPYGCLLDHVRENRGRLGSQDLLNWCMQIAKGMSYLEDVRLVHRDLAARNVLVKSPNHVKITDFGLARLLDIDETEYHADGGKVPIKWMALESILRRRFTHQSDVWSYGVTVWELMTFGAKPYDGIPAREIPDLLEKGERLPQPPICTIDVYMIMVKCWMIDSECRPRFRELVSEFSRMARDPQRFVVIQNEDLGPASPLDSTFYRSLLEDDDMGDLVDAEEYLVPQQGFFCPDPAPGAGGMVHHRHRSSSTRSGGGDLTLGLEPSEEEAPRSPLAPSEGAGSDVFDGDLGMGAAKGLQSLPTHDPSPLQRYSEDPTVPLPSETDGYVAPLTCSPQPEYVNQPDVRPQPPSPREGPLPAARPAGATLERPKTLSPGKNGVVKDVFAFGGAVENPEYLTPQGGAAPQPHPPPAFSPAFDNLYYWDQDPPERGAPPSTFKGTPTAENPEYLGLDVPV

With `Cc1c(C)c2c(c(C)c1O)CCC(C)(CN1CCN(c3cc(N4CCCC4)nc(N4CCCC4)n3)CC1)O2` (stereo not drawn), the IC50 result was “Not Active” in data set [1]; “Not Active” in data set [2]; “Not Active” in data set [3] (insect cells); “Not Active” in data set [4]; “Not Active” in data set [5]; 10.8 µM on Adenosine receptor A3 (read-out: IC50). The IC50 on Melanocortin receptor 4 (read-out: IC50) came out at 58 µM. The Ki entry in data set [4] was “Not Active”; in data set [5] it was “Not Active”; on Adenosine receptor A3, 6.08 µM; at Melanocortin receptor 4 (read-out: Ki), 55.8 µM.
Regarding `COc1ccc(CCN(C)CCCC(C#N)(c2ccc(OC)c(OC)c2)C(C)C)cc1OC` (stereo not drawn), the IC50 result (in data set [1]; in data set [2]; in data set [3] (insect cells); in data set [4]; against Adenosine receptor A3 (cho-k1); against Melanocortin receptor 4 (hek293)) was “Not Active” throughout. In data set [4], the Ki entry is “Not Active”.
With `CC(C)Cc1ccc([C@@H](C)C(=O)O)cc1` [(R)-IBUPROPHEN], the IC50 entry (in data set [1]; in data set [2]; in data set [3] (insect cells); in data set [4]; in data set [5]; against Adenosine receptor A3 (cho-k1)) was “Not Active” each time. On Melanocortin receptor 4 (hek293), the IC50 result was “Not Active”. Also, the Ki entry in data set [4] and in data set [5] was “Not Active” each time.
For `CN(C)CCOC(c1ccccc1)c1ccccc1` [DIPHENHYDRAMINE], the IC50 result (in data set [1]; in data set [2]; in data set [3] (insect cells); on Adenosine receptor A3 (cho-k1); against Melanocortin receptor 4 (hek293)) was “Not Active” each time.
For the compound `Clc1ccc(COC(Cn2ccnc2)c2ccc(Cl)cc2Cl)cc1` (stereo not drawn) [ECONAZOLE], the IC50 result is “Not Active” in data set [1], “Not Active” in data set [2], 13.9 µM in data set [3] (read-out: IC50) and “Not Active” against Melanocortin receptor 4 (hek293).
`CCN(CC)CCOc1ccc(/C(=C(/Cl)c2ccccc2)c2ccccc2)cc1` [ENCLOMIPHENE]: the IC50 entry in data set [1] is “Not Active”; in data set [2], “Not Active”; in data set [3] (read-out: IC50) it was 1.67 µM; in data set [5] it was “Not Active”; against Melanocortin receptor 4 (hek293), “Not Active”. In addition, the Ki entry in data set [5] was “Not Active”.
As for `Fc1ccc(C(c2ccc(F)cc2)N2CCN(C/C=C/c3ccccc3)CC2)cc1` [FLUNARIZINE], the IC50 result is “Not Active” in data set [1]; “Not Active” in data set [2]; “Not Active” in data set [3] (insect cells); 5.2 µM on Adenosine receptor A3 (read-out: IC50); “Not Active” on Melanocortin receptor 4 (hek293). In addition, the Ki on Adenosine receptor A3 is 2.94 µM.
In the case of `CNCCC(Oc1ccc(C(F)(F)F)cc1)c1ccccc1` (stereo not drawn) [FLUOXETINE], the IC50 result (in data set [1]; in data set [2]; in data set [3] (insect cells); on Adenosine receptor A3 (cho-k1); at Melanocortin receptor 4 (hek293)) was “Not Active” throughout.
In the case of `Cc1ccc(NC(=O)c2ccc(CN3CCN(C)CC3)cc2)cc1Nc1nccc(-c2cccnc2)n1` [IMATINIB], the 50% inhibitory concentration (IC50) entry (in data set [1]; in data set [2]; on Adenosine receptor A3 (cho-k1); on Melanocortin receptor 4 (hek293)) was “Not Active” throughout.
On to `CC(C)Oc1ccc2c(=O)c(-c3ccccc3)coc2c1` [IPRIFLAVONE], for which the IC50 result (in data set [1]; in data set [2]; in data set [3] (insect cells); in data set [4]; in data set [5]; on Adenosine receptor A3 (cho-k1)) was “Not Active” in each case. Besides, the IC50 result on Melanocortin receptor 4 (hek293) is reported as “Not Active”. The Ki result in data set [4] and in data set [5] was “Not Active” each time.
Take `CC(C)NCC(O)c1ccc(O)c(O)c1` (stereo not drawn) [ISOPROTERENOL]: the IC50 result (in data set [1]; in data set [2]; in data set [3] (insect cells); in data set [4]; in data set [5]; at Adenosine receptor A3 (cho-k1)) was “Not Active” in each case. On Melanocortin receptor 4 (hek293), the IC50 entry is “Not Active”. In addition, the Ki entry in data set [4] and in data set [5] was “Not Active” each time.
Turning to `CNC1(c2ccccc2Cl)CCCCC1=O` (stereo not drawn) [KETAMINE], the IC50 result (in data set [1]; in data set [2]; in data set [3] (insect cells); in data set [4]; in data set [5]; at Adenosine receptor A3 (cho-k1)) was “Not Active” throughout. Moreover, the IC50 result against Melanocortin receptor 4 (hek293) is “Not Active”. The Ki result in data set [4] and in data set [5] was “Not Active” each time.
With `N#Cc1ccc(C(c2ccc(C#N)cc2)n2cncn2)cc1` [LETROZOLE], the IC50 result (in data set [1]; in data set [2]; in data set [3] (insect cells); in data set [4]; in data set [5]; against Adenosine receptor A3 (cho-k1)) was “Not Active” throughout. For the same compound, the IC50 result against Melanocortin receptor 4 (hek293) is reported as “Not Active”. For the same compound, the Ki result in data set [4] and in data set [5] was “Not Active” in each case.
Take `CCN1CCC[C@H]1CNC(=O)c1cc(S(N)(=O)=O)ccc1OC` [LEVOSULPIRIDE]: the IC50 result (in data set [1]; in data set [2]; in data set [3] (insect cells); in data set [4]; in data set [5]; against Adenosine receptor A3 (cho-k1)) was “Not Active” in each case. Besides, the IC50 result on Melanocortin receptor 4 (hek293) is “Not Active”. Also, the Ki result in data set [4] and in data set [5] was “Not Active” throughout.
With `CCN(CC)CC(=O)Nc1c(C)cccc1C` [LIDOCAINE], the IC50 entry (in data set [1]; in data set [2]; in data set [3] (insect cells); in data set [4]; against Adenosine receptor A3 (cho-k1); on Melanocortin receptor 4 (hek293)) was “Not Active” throughout. Moreover, the Ki result in data set [4] is reported as “Not Active”.
With `O=C1Nc2ccc(Cl)cc2C(c2ccccc2Cl)=NC1O` (stereo not drawn) [LORAZEPAM], the IC50 entry (in data set [1]; in data set [2]; in data set [3] (insect cells); in data set [4]; in data set [5]; against Adenosine receptor A3 (cho-k1)) was “Not Active” throughout. In addition, the IC50 entry against Melanocortin receptor 4 (hek293) is on record as “Not Active”. Further, the Ki result in data set [4] and in data set [5] was “Not Active” in each case.
As for `CO[C@@H]1[C@@H](OC)[C@H](C)[C@@](O)(CC(=O)O)O[C@H]1[C@H](C)[C@H]1O[C@@]2(CC[C@@](C)([C@H]3CC[C@@](C)([C@@H]4O[C@@H]([C@H]5O[C@](C)(O)[C@H](C)C[C@@H]5C)C[C@@H]4O[C@@H]4C[C@H](OC)[C@@H](OC)[C@H](C)O4)O3)O2)C[C@H](O)[C@H]1C` [MADURAMICIN ACID], the IC50 result (in data set [1]; in data set [2]; in data set [3] (insect cells); in data set [4]; in data set [5]; against Adenosine receptor A3 (cho-k1)) was “Not Active” throughout. Moreover, the IC50 result at Melanocortin receptor 4 (hek293) is “Not Active”. For the same compound, the Ki result in data set [4] and in data set [5] was “Not Active” throughout.
For the compound `COc1c2occc2cc2ccc(=O)oc12` [METHOXSALEN], the 50% inhibitory concentration (IC50) result (in data set [1]; in data set [2]; in data set [3] (insect cells); in data set [4]; in data set [5]; against Adenosine receptor A3 (cho-k1)) was “Not Active” each time. Besides, the IC50 entry on Melanocortin receptor 4 (hek293) was “Not Active”. Also, the Ki result in data set [4] and in data set [5] was “Not Active” each time.
On to `CN[C@H]1CC[C@@H](c2ccc(Cl)c(Cl)c2)c2ccccc21` [SERTRALINE], for which the IC50 entry (in data set [1]; in data set [2]; in data set [3] (insect cells); on Adenosine receptor A3 (cho-k1); on Melanocortin receptor 4 (hek293)) was “Not Active” in each case.
Take `COc1cc2nc(N3CCN(C(=O)C4CCCO4)CC3)nc(N)c2cc1OC` (stereo not drawn) [TERAZOSIN]: the IC50 result (in data set [1]; in data set [2]; in data set [3] (insect cells); in data set [4]; at Adenosine receptor A3 (cho-k1); at Melanocortin receptor 4 (hek293)) was “Not Active” throughout. In addition, the Ki result in data set [4] was “Not Active”.
